The values that follow come from ChEMBL document CHEMBL4265953, “Exploration of novel pyrrolo[2,1-f][1,2,4]triazine derivatives with improved anticancer efficacy as dual inhibitors of c-Met/VEGFR-2” (Eur J Med Chem, 2018).

Values after ≈ are worked out from the molar mass of the structure shown. Some results are limits rather than exact numbers.

Data set [1] is described as follows: Cmax in Sprague-Dawley rat at 10 mg/kg, po by LC-MS analysis. It counts as ADME, organism-based. Details: dose 10 mg/kg, route oral. The note with it: in vivo.
Data set [2] in a line: physchem.
Data set [3] in a line: Cmax in Sprague-Dawley rat at 2 mg/kg, iv by LC-MS analysis. The format is ADME, organism-based. Details: dose 2 mg/kg, route intravenous. The following applies: in vivo.
Data set [4] in a line: Tmax in Sprague-Dawley rat at 10 mg/kg, po by LC-MS analysis. The format is ADME, organism-based. The following applies: in vivo.
The nature of data set [5]: AUC in Sprague-Dawley rat at 2 mg/kg, iv by LC-MS analysis. The format is ADME, organism-based. The following applies: in vivo.
Data set [6] can be described thus: Half life in Sprague-Dawley rat at 2 mg/kg, iv by LC-MS analysis. It counts as ADME, organism-based. The following applies: in vivo.
A short description of data set [7]: Clearance in Sprague-Dawley rat at 2 mg/kg, iv by LC-MS analysis. It counts as ADME, organism-based. The note with it: in vivo.
The nature of data set [8]: physchem. The note with it: n-octanol/water.
Data set [9] is described as follows: AUC in Sprague-Dawley rat at 10 mg/kg, po by LC-MS analysis. It counts as ADME, organism-based. The following applies: in vivo.
The nature of data set [10]: Oral bioavailability in Sprague-Dawley rat at 10 mg/kg by LC-MS analysis. The format is ADME, organism-based. The following applies: in vivo.
Data set [11] can be described thus: Half life in Sprague-Dawley rat at 10 mg/kg, po by LC-MS analysis. It counts as ADME, organism-based. The following applies: in vivo.
The conditions of data set [12]: octanol/water, 0.5 h.

As for `Cc1c(OCC(O)CN2CCN(C)CC2)cn2ncnc(Oc3ccc(NC(=O)C4(C(=O)Nc5ccc(F)cc5)CC4)cc3F)c12` (stereo not given), the results for the Cmax in [1] and in data set [3] were 0.129 µg/mL and 0.0721 µg/mL, respectively. In addition, the solubility at 1 h in data set [2] came to 0.0205 mg/mL (≈ 32.2 µM). The time to peak (Tmax) in data set [4] amounted to 5 h. Further, the AUC turned out to be 0.239 µg·h/mL in [5] and 1.17 µg·h/mL in data set [9]. Also, the half-life is 2.16 h in data set [6] and 5 h in [11]. For the same molecule, the clearance in data set [7] was 8.35 L/h/kg. This molecule also registered a logP at 0.5 h in data set [8] of 2.98. In data set [10], the bioavailability is 98.1%.

Turning to `COc1cc2nccc(Oc3ccc(NC(=O)C4(C(=O)Nc5ccc(F)cc5)CC4)cc3)c2cc1OC.O=C(O)C[C@H](O)C(=O)O` [CABOZANTINIB S-MALATE], in data set [2], the concentration in solution (solubility at 1 h) came to 0.052 mg/mL. For the same molecule, in data set [12], the log partition coefficient (logP) worked out at 1.89.

`COc1cc2nccc(Oc3ccc(NC(=O)C4(C(=O)Nc5ccc(F)cc5)CC4)cc3)c2cc1OC` [CABOZANTINIB] came in with a solubility at 1 h in data set [2] of less than 0.0001 mg/mL. For the same molecule, the logP at 0.5 h in data set [8] amounted to 3.89.
